# Reference: patent US9980936B2, “BH4 antagonists and methods related thereto” (Emory University, priority 2014, dated 2018)
# “Also recorded” adds a separate entry of the source.
# What was measured:
# [1] = test system: H460 or DMS53 cells expressing Bcl2 shRNA transfected with AAAA Bcl2 mutant; experiment: rescue of Bcl2-silenced cells with AAAA Bcl2 mutant; type: cell-based; settings: 72 h
# Source text: (§1) Whether expression of exogenous Bcl2 can restore the sensitivity of Bcl2-silenced lung cancer cells to BDA-2 and whether the BDA-2/BH4 binding is important for such effect was examined. WT and BDA-2 binding deficient D10A/N11A/R12A/E13A (AAAA) Bcl2 mutant cDNA in pCIneo or vector-only control were transfected into H460 or DMS53 cells expressing Bcl2 shRNA. It has been reported that if the shRNA is directed to the 3′ UTR or 5′ UTR of the gene, the effect of the shRNA1 can be rescued by ectopically expressing the protein using the wild-type or mutant cDNA. Because Bcl2 shRNA1 targets the 5′UTR of endogenous Bcl2, the silencing effect of shRNA1 on Bcl2 expression could be rescued by transfection of exogenous WT or AAAA Bcl2 mutant. After transfection, cells were treated with BDA-2 or the BH3 mimetic ABT-199 at the indicated concentrations for 72 h. […] The apoptotic effect of BDA-2 on lung cancer cells requires its BH4 binding.
# [2] = test system: H460 or DMS53 cells expressing Bcl2 shRNA transfected with WT Bcl2; experiment: rescue of Bcl2-silenced cells with exogenous WT Bcl2; type: cell-based; settings: 72 h
# Source text: as §1
# [3] = test system: Bcl2 in tumor tissues of NSCLC patients; experiment: Bcl2 expression by IHC in tumor tissue of treated NSCLC patients; type: in vivo, human; settings: 5 or 10 mg/day for 28 days, 10 NSCLC patients
# Method: To test whether a similar effect of RAD001 on Bcl2 expression occurs in patients Bcl2 expression was analyzed by IHC in baseline and post-treatment tissue samples obtained from 10 NSCLC patients treated with RAD001 (5 or 10 mg/day) for 28 days as part of a neoadjuvant clinical study of everolimus in patients with resectable NSCLC. […] Thus, inhibition of Bcl2 may enhance the potency of mTOR inhibitor against lung cancer.
# [4] = test system: H460 cells; experiment: SRB cell growth assay, combination with mTOR inhibitor; type: cell-based, human; settings: BDA-366 100 nM, RAD001 1 nM, alone or in combination, 72 hr
# Method: Cell growth was analyzed by sulforhodamine B (SRB) colorimetric assay.
# [5] = test system: A549 cells; experiment: Bcl2 expression after mTOR inhibition (Western blot); type: cell-based; settings: increasing concentrations, 24 hr
# Method: (§2) A549 or H460 cells were treated with increasing concentrations of RAD001 for 24 h. Bcl2 and p-P70S6K were analyzed by Western blot.
# (§3) Rapamycin and its derivative RAD001 (i.e. everolimus) are potent allosteric inhibitors of mTOR. […] Previous reports indicate that expression of Bcl2 is associated with resistance of cancer cells to mTOR inhibitors. To further test whether mTOR inhibition regulates Bcl2 expression, A549 and H460 cells were treated with increasing concentrations of RAD001 for 24 hr.
# [6] = test system: H460 cells; experiment: as above; type: cell-based; settings: increasing concentrations, 24 hr
# Method: as §2, §3
# [7] = target: purified, human Bcl2 protein (Homo sapiens, UniProt P10415); experiment: in vitro cell-free Bcl2 conformational change assay (IP with anti-Bcl2/BH3 domain antibody); type: biochemical
# purified, human Bcl2 protein, sequence (P10415 whole entry, the tested form may be a part): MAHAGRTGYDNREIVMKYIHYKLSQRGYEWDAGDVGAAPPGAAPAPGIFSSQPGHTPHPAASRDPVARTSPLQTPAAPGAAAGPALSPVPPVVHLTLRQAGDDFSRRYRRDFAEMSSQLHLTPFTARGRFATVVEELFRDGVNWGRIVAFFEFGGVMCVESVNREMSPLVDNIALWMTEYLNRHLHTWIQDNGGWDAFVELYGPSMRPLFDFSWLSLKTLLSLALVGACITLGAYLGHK
# Method: To test whether BDA-2 directly induces Bcl2 conformational change, an in vitro cell-free assay was employed. Purified recombinant Bcl2 protein was incubated with increasing concentrations of BDA-2 in lysis buffer, followed by immunoprecipitation (IP) using the anti-Bcl2/BH3 domain antibody.
# [8] = test system: Plasmid pUC19 DNA; experiment: electrophoretic mobility shift assay (EMSA); type: binding
# Method: To test whether BDA-2 reacts with DNA as a crosslinker, electrophoretic mobility shift assay (EMSA) was performed. Cisplatin, a known DNA binding agent, was used as positive control. Plasmid pUC19 DNA was incubated with BDA-2 or cisplatin.
# [9] = test system: lung cancer cells
# [10] = test system: purified recombinant Bax; experiment: cell-free Bax activation (IP using 6A7 Bax antibody); type: biochemical; settings: without Bcl2
# Method: BDA-366-induced Bcl2 conformational change was also confirmed by immunofluorescence using a Bcl2/BH3-domain specific antibody. […] To test this possibility, a 6A7 Bax antibody that only recognizes the conformationally changed, active, form of Bax was employed. Purified Bcl2 was treated with BDA-366 in lysis buffer for 1 h. The mixture of Bcl2/BDA-2 was then incubated with purified recombinant Bax for another 2 h, followed by IP using 6A7 antibody.
# To further test whether the BH3 domain of Bcl2 is important for BDA-366 activation of Bax, purified recombinant WT and the BH3 deletion (ΔBH3) mutant Bcl2 proteins were incubated with purified Bax protein in the absence or presence of BDA-366, followed by IP with 6A7 antibody. […] To test this at the cellular or mitochondrial level, WT, ΔBH3 Bcl2 mutant and empty vector (pCIneo) were transfected into H1299 cells that express undetectable levels of endogenous Bcl2 but high levels of endogenous Bax. Cells or isolated mitochondria from these cells were treated with BDA-2, followed by IP with Bcl2 BH3 or 6A7 antibody, respectively.
molecule,measurement,setting,value
"CC1(C)CCC(CN2CCN(c3ccc(C(=O)NS(=O)(=O)c4ccc(NCC5CCOCC5)c([N+](=O)[O-])c4)c(Oc4cnc5[nH]ccc5c4)c3)CC2)=C(c2ccc(Cl)cc2)C1 [ABT-199, reference compound]",sensitivity of cells restored after expression of AAAA Bcl2,[1],restored the sensitivity
same,sensitivity of cells after expression of exogenous WT Bcl2,[2],restored sensitivity
CO[C@H]1C[C@@H]2CC[C@@H](C)[C@@](O)(O2)C(=O)C(=O)N2CCCC[C@H]2C(=O)O[C@H]([C@H](C)C[C@@H]2CC[C@@H](OCCO)[C@H](OC)C2)CC(=O)[C@H](C)/C=C(\C)[C@@H](O)[C@@H](OC)C(=O)[C@H](C)C[C@H](C)/C=C/C=C/C=C/1C [RAD001],Bcl2 expression in post-treatment tumor tissues compared to baseline,[3],increased expression of Bcl2
same,cell growth inhibition,[4],partially inhibited lung cancer cell growth
same,Bcl2 expression,[5],up-regulation of Bcl2 in a dose-dependent manner; also recorded: up-regulates Bcl2
same,Bcl2 expression,[6],up-regulation of Bcl2 in a dose-dependent manner; also recorded: up-regulates Bcl2
COc1cc([C@@H]2c3cc4c(cc3[C@@H](O[C@@H]3O[C@@H]5CO[C@@H](C)O[C@H]5[C@H](O)[C@H]3O)[C@H]3COC(=O)[C@H]23)OCO4)cc(OC)c1O [VP-16],direct induction of Bcl2 conformational change (BH3 exposure),[7],not
"N.N.[Cl][Pt][Cl] [cisplatin, reference compound]",direct induction of Bcl2 conformational change (BH3 exposure),[7],not
same,binding to pUC19 DNA causing mobility shift,[8],can bind to pUC19 DNA to cause mobility shift
"C#Cc1cccc(Nc2ncnc3cc(OCCOC)c(OCCOC)cc23)c1 [erlotinib, N-(3-ethynylphenyl)-6,7-bis(2-methoxyethoxy)quinazolin-4-amine]",Bcl-2/Bcl-XL expression,[9],up-regulation of Bcl-2/Bcl-XL
BAM7 [reference compound],direct activation of Bax,[10],can directly activate Bax
